Data reported in patent US12268749B2, “Cell-penetrating peptides” (Oxford University Innovation Limited, priority 2018, dated 2025).

Legend:
[1] = system: exon 51; conditions: in vivo; cited from earlier work
[2] = toxicological assessment of peptide-PMO in C57BL/6 mice (urinary KIM-1, NGAL; serum BUN); format: in vivo, mouse; conditions: 7 days after single dose of 30 mg/kg, FIG. 7
Protocol: Female C57BL/6 mice aged 8-10 weeks were administered a single 30 mg/kg dose of peptide-PMO in 0.9% saline by bolus intravenous tail vein injection. Urine was non-invasively collected under chilled conditions at Day 2 and Day 7 post-administration following 20 hours housing in metabolic cages (Tecniplast, UK). Serum was collected from jugular vein at Day 7 at necropsy, as was tibialis anterior, diaphragm and heart tissue.
The same procedure was followed at different single dosage amounts ranging from 2.5 mg/kg up to 50 mg/kg of peptide-PMO in 0.9% saline by intravenous tail vein injection.
Urinary levels of KIM-1 (Kidney injury molecule-1) and NGAL (Neutrophil Gelatinase-Associated Lipocalin) were quantified by ELISA (KIM-1 R&D cat #MKM100, NGAL R&D cat #MLCN20) following appropriate dilution of urine to fit standard curves. Values were normalised to urinary creatinine levels that were quantified at MRC Harwell Institute, Mary Lyon Centre, Oxfordshire, UK. Serum blood urea nitrogen levels were quantified at MRC Harwell Institute, Mary Lyon Centre, Oxfordshire, UK.
All levels were quanitifed on an AU680 Clinical Chemistry Analyser, Beckman Coulter.

| Substance | levels of dystrophin restoration [1] | Serum blood urea nitrogen levels [2] |
| --- | --- | --- |
| eteplirsen | approximately 1 % of normal dystrophin levels |  |
| Ac-RXRRBRR-FQILY-RBRXR-B [Pip9b2] |  | elevated |
